In PubChem BioAssay AID2060894 (Molecular Pharmacology Branch, DTP, NCI, 2025):

Tested on: K12877-001-R-J1-PDC complex spheroid viability
Assay: Anticancer human tumor K12877-001-R-J1-PDC patient-derived lung adenocarcinoma cell line growth inhibition [RAS]
Details: for IC50: curve of first compound; for viability, T/C: stronger effect = lower value
Procedure, shortened: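 Agents were tested in combination matrices in half-log decrements from a top concentration at or near clinical Cmax (10 microM if undetermined). Targets were multi-cell spheroids of tumour lines plus HUVEC and MSC stromal cells.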

[1] = second compound 0.00316 µM, first compound 0.0316 µM
[2] = second compound 0.00316 µM, first compound 0.1 µM
[3] = second compound 0.00316 µM, first compound 0.316 µM
[4] = second compound 0.00316 µM, first compound 1 µM
[5] = second compound 0.00316 µM, first compound 3.16 µM
[6] = second compound 0.00316 µM, first compound 10 µM
[7] = second compound 0.01 µM, first compound 0.0316 µM
[8] = second compound 0.01 µM, first compound 0.1 µM
[9] = second compound 0.01 µM, first compound 0.316 µM
[10] = second compound 0.01 µM, first compound 1 µM
[11] = second compound 0.01 µM, first compound 3.16 µM
[12] = second compound 0.01 µM, first compound 10 µM
[13] = second compound 0.0316 µM, first compound 0.0316 µM
[14] = second compound 0.0316 µM, first compound 0.1 µM
[15] = second compound 0.0316 µM, first compound 0.316 µM
[16] = second compound 0.0316 µM, first compound 1 µM
[17] = second compound 0.0316 µM, first compound 3.16 µM
[18] = second compound 0.0316 µM, first compound 10 µM
[19] = second compound 0.1 µM, first compound 0.0316 µM
[20] = second compound 0.1 µM, first compound 0.1 µM
[21] = second compound 0.1 µM, first compound 0.316 µM
[22] = second compound 0.1 µM, first compound 1 µM
[23] = second compound 0.1 µM, first compound 3.16 µM
[24] = second compound 0.1 µM, first compound 10 µM
[25] = second compound 0.316 µM, first compound 0.0316 µM
[26] = second compound 0.316 µM, first compound 0.1 µM
[27] = second compound 0.316 µM, first compound 0.316 µM
[28] = second compound 0.316 µM, first compound 1 µM
[29] = second compound 0.316 µM, first compound 3.16 µM
[30] = second compound 0.316 µM, first compound 10 µM
[31] = second compound 1 µM, first compound 0.0316 µM
[32] = second compound 1 µM, first compound 0.1 µM
[33] = second compound 1 µM, first compound 0.316 µM
[34] = second compound 1 µM, first compound 1 µM
[35] = second compound 1 µM, first compound 3.16 µM
[36] = second compound 1 µM, first compound 10 µM
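Also: spheroids exposed to agents for one week before readout.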
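For viability, T/C in this document: tumour cells co-cultured with HUVEC and mesenchymal stem cells in spheroids.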

CC1(O)CCCC1n1c(=O)c(C(F)F)cc2cnc(NC3CCN(S(C)(=O)=O)CC3)nc21 (stereo unspecified) + C=CC(=O)N1CCN(c2nc(OCC3CCCN3C)nc3c(F)c(-c4nc(N)cc(C)c4C(F)(F)F)c(Cl)cc23)C(C)C1
IC50 (second compound 0.00316 µM): 4030 nM
IC50 (second compound 0.01 µM): 1190 nM
IC50 (second compound 0.0316 µM): 1640 nM
IC50 (second compound 0.1 µM): 1290 nM
IC50 (second compound 0.316 µM): 710 nM
IC50 (second compound 1 µM): 745 nM
viability, T/C [1]: 105%
viability, T/C [2]: 79.9%
viability, T/C [3]: 68.2%
viability, T/C [4]: 64%
viability, T/C [5]: 71.9%
viability, T/C [6]: 2.13%
viability, T/C [7]: 96.1%
viability, T/C [8]: 75.3%
viability, T/C [9]: 49.5%
viability, T/C [10]: 68.7%
viability, T/C [11]: 34.4%
viability, T/C [12]: 2.51%
viability, T/C [13]: 88.1%
viability, T/C [14]: 84.9%
viability, T/C [15]: 56.4%
viability, T/C [16]: 63.1%
viability, T/C [17]: 43.9%
viability, T/C [18]: 2.83%
viability, T/C [19]: 94.5%
viability, T/C [20]: 78.7%
viability, T/C [21]: 59.2%
viability, T/C [22]: 53.1%
viability, T/C [23]: 48.4%
viability, T/C [24]: 2.13%
viability, T/C [25]: 102%
viability, T/C [26]: 71.1%
viability, T/C [27]: 58.7%
viability, T/C [28]: 45.3%
viability, T/C [29]: 41.2%
viability, T/C [30]: 2.43%
viability, T/C [31]: 95%
viability, T/C [32]: 80.7%
viability, T/C [33]: 43.7%
viability, T/C [34]: 60.7%
viability, T/C [35]: 42.2%
viability, T/C [36]: 2.22%

CCC(CC)c1cc(NC2CCC(N)C2)n2nccc2n1 (stereo unspecified) + C=CC(=O)N1CCN(c2nc(OCC3CCCN3C)nc3c(F)c(-c4nc(N)cc(C)c4C(F)(F)F)c(Cl)cc23)C(C)C1
IC50 (second compound 0.00316 µM): 1690 nM
IC50 (second compound 0.01 µM): 1430 nM
IC50 (second compound 0.0316 µM): 1580 nM
IC50 (second compound 0.1 µM): 1400 nM
IC50 (second compound 0.316 µM): 1480 nM
IC50 (second compound 1 µM): 1440 nM
viability, T/C [1]: 97%
viability, T/C [2]: 94.7%
viability, T/C [3]: 98%
viability, T/C [4]: 89.6%
viability, T/C [5]: 2.45%
viability, T/C [6]: 0.94%
viability, T/C [7]: 91.2%
viability, T/C [8]: 99.4%
viability, T/C [9]: 93.2%
viability, T/C [10]: 71.3%
viability, T/C [11]: 2.11%
viability, T/C [12]: 0.91%
viability, T/C [13]: 99.3%
viability, T/C [14]: 95.7%
viability, T/C [15]: 86.2%
viability, T/C [16]: 81.5%
viability, T/C [17]: 2.25%
viability, T/C [18]: 1.53%
viability, T/C [19]: 85.2%
viability, T/C [20]: 78.3%
viability, T/C [21]: 83.4%
viability, T/C [22]: 70%
viability, T/C [23]: 1.91%
viability, T/C [24]: 0.93%
viability, T/C [25]: 88.3%
viability, T/C [26]: 91.9%
viability, T/C [27]: 86.3%
viability, T/C [28]: 74.7%
viability, T/C [29]: 2.48%
viability, T/C [30]: 0.97%
viability, T/C [31]: 86.2%
viability, T/C [32]: 80.6%
viability, T/C [33]: 94.8%
viability, T/C [34]: 72.5%
viability, T/C [35]: 1.96%
viability, T/C [36]: 1.06%

CCN1CCN(Cc2ccc(Nc3ncc(F)c(-c4cc(F)c5nc(C)n(C(C)C)c5c4)n3)nc2)CC1 + C=CC(=O)N1CCN(c2nc(OCC3CCCN3C)nc3c(F)c(-c4nc(N)cc(C)c4C(F)(F)F)c(Cl)cc23)C(C)C1
IC50 (second compound 0.00316 µM): 945 nM
IC50 (second compound 0.01 µM): 545 nM
IC50 (second compound 0.0316 µM): 691 nM
IC50 (second compound 0.1 µM): 614 nM
IC50 (second compound 0.316 µM): 597 nM
IC50 (second compound 1 µM): 696 nM
viability, T/C (second compound 0.00316 µM, first compound 0.00316 µM): 95.9%
viability, T/C (second compound 0.00316 µM, first compound 0.01 µM): 103%
viability, T/C [1]: 97.2%
viability, T/C [2]: 91.3%
viability, T/C [3]: 83.5%
viability, T/C [4]: 47.8%
viability, T/C (second compound 0.01 µM, first compound 0.00316 µM): 88.3%
viability, T/C (second compound 0.01 µM, first compound 0.01 µM): 89.8%
viability, T/C [7]: 85.2%
viability, T/C [8]: 95.4%
viability, T/C [9]: 65.2%
viability, T/C [10]: 33.2%
viability, T/C (second compound 0.0316 µM, first compound 0.00316 µM): 96.4%
viability, T/C (second compound 0.0316 µM, first compound 0.01 µM): 90.4%
viability, T/C [13]: 76.5%
viability, T/C [14]: 76.7%
viability, T/C [15]: 75.8%
viability, T/C [16]: 39.2%
viability, T/C (second compound 0.1 µM, first compound 0.00316 µM): 92.2%
viability, T/C (second compound 0.1 µM, first compound 0.01 µM): 84.5%
viability, T/C [19]: 83.3%
viability, T/C [20]: 72.4%
viability, T/C [21]: 65.8%
viability, T/C [22]: 39.6%
viability, T/C (second compound 0.316 µM, first compound 0.00316 µM): 95.2%
viability, T/C (second compound 0.316 µM, first compound 0.01 µM): 86.5%
viability, T/C [25]: 79.9%
viability, T/C [26]: 77.9%
viability, T/C [27]: 78.6%
viability, T/C [28]: 30.1%
viability, T/C (second compound 1 µM, first compound 0.00316 µM): 85%
viability, T/C (second compound 1 µM, first compound 0.01 µM): 77.2%
viability, T/C [31]: 88.1%
viability, T/C [32]: 81.1%
viability, T/C [33]: 74.1%
viability, T/C [34]: 38.9%
